Measured values reported in patent US20260193668A1, “NOVEL PEPTIDES AND USE THEREOF FOR MODULATING PROTEIN ACCUMULATION” (UNIVERSITE TOULOUSE III - PAUL SABATIER, priority 2022, published 2026).

Columns and labels:
[1] = test system: soybean plants; assay: Heat stress resistance of soybean plants; assay type: in vivo, Glycine max; conditions: 45° C. for 24 h
Description: (§1) (a, b) Relative area of lesions on S. lycopersicum leaves infected with B. cinerea and treated with an irrelevant peptide or cPEPjar1. (c, d) Heat stress resistance of soybean plants treated with an irrelevant peptide or cPEPsp101. (e, f) Growth (plant height) of soybean plants treated with an irrelevant peptide or a mixture of cPEPs (targeting MRB1, SHY2 and SGR1). (g, h) Leaf area of B. vulgaris plants treated with an irrelevant peptide or a mixture of cPEPs (targeting EIN2, BR11, BAK1 and WUS). (i, j) Leaf surface of A. hypochondriacus plants treated with an irrelevant peptide or a mixture of cPEPs (targeting EIN2, BR11, BAK1 and WUS).
N. benthamiana plants were treated by spraying the leaves 24 h before harvesting. For Luc assays, 100 μL of MS/2 liquid medium containing the peptides was added to each well. 5 μL of luciferin was added and luciferase activity was read 30 min later using a spectrophotometer. All other assays were performed by spraying or watering the plants. To quantify the protein level induced by cPEPs in Arabidopsis, rosettes were sprayed daily with 100 μM of peptide or its control for 5 days. Leaves were harvested 6 h after the last treatment for western blot analysis. […] Chlorophyll content was measured using the SPAD chlorophylometer (Konica Minolta). Leaf area was measured using ImageJ software. […]

[2] = test system: Botrytis cinerea; assay: S. lycopersicum leaves infected with B. cinerea; assay type: in vivo; conditions: tomato
Description: as §1
Wild-type or mutant A. thaliana leaves were sprayed daily with 100 μM of peptide or 100 μM of the corresponding scramble version for 3 days. Six hours after the last treatment, five mature leaves per plant were inoculated with a 5 μL droplet of 2.5×10^5 spores/mL of Botrytis cinerea strain B05.10 diluted in 100 μM of peptide or its corresponding scramble version. After inoculation, plants were maintained at 100% relative humidity. Then, a 2 μL droplet of 100 μM of peptide or 100 μM of the corresponding scramble version was deposited daily on B. cinerea-infected leaves for 3 days (until symptoms appeared). Leaves were removed from the plants to determine lesion areas using the ImageJ programme. […]

[3] = test system: luciferase mRNA; assay: Relative expression of the luciferase transgene by RT-qPCR; assay type: in vivo, Arabidopsis thaliana; conditions: A. thaliana expressing LUC treated with synthetic peptide
Description: (§2) Analysis of luciferase expression in A. thaliana constitutively expressing the LUC transgene. (a) Agarose gel after PCR amplification of RNA obtained by immunoprecipitation using anti-HA magnetic beads, followed by RT-PCR, on plants treated with the indicated peptide (SC-HA: Scrambled cPEPluc-HA; Luc-HA: cPEPluc-HA). (b) Relative expression of the luciferase transgene in plants treated with the indicated peptide, quantified by RT-qPCR. (c-e) Relative quantification of LUC in plants treated with the indicated peptide. (f, g) Ratio between induction and quantification of LUC in plants treated with cPEPluc compared to plants treated with Scrambled cPEPluc, using different peptide concentrations (f) or taken at different time points (g). (h) Transcriptomic analysis of plants treated with cPEPluc-HA compared to plants treated with Scrambled cPEPluc-HA. (i) Proteomic analysis of plants treated with cPEPluc-HA compared to plants treated with Scrambled cPEPluc-HA. Protein expression was analysed by Western blots and quantified using ImageJ.
Quantification of mRNAs was performed by qRT-PCR using appropriate primer pairs selected from the sequences: SEQ ID NOs: 367 to 374. Expression levels for the controls were set at 100. The primers used for the A. euteiches assays are described in Camborde et al (New Phytol. 233:2232-2248. 2022).

[4] = test system: luciferase; assay: In vitro transcription/translation of luciferase (wheat germ system); assay type: biochemical; conditions: 60 min
Description: (§3) (a) Analysis of luciferase activity in A. thaliana plants constitutively expressing the LUC transgene and treated with Scrambled cPEPluc or cPEPluc, with or without cycloheximide. (b) Analysis of luciferase activity after in vitro transcription/translation of luciferase expressed with cPEPluc or Scrambled cPEPluc.
The TnT® SP6 high-throughput wheat germ protein expression system (Promega) was used according to the manufacturer's instructions. The LUC sequence was amplified using the GoTaq Polymerase® (Promega), cPEPs or their corresponding Scramble versions were added just prior to the start of the reaction. The reaction was stopped after 60 min, after which LUC activity was measured using a plate spectrophotometer (Perkin-Elmer Victor Nivo).

[5] = test system: luciferase; assay: Luciferase activity in A. thaliana constitutively expressing the LUC transgene; assay type: in vivo, Arabidopsis thaliana
Description: as §2
Medicago truncatula Gaertn cv. Jemalong genotype A17 were grown on Long Aston medium as described in Delaux P M et al (New Phytol. 2013 July; 199(1):59-65). Arabidopsis thaliana Col-0 plants were grown in soil until 4 weeks of age in a growth chamber (22/20° C., 16 h/8 h L/D, RH 80%, ~75 μmol·m^−2 s^−1). Barbarea vulgaris seeds were stratified for 24 h at 4° C. before being grown in pots in a growth chamber. Seeds of Amaranthus hypochondriacus, Glycine max and Solanum lycopersicum were sown in pots and grown in a growth chamber. […]
N. benthamiana plants were treated by spraying the leaves 24 h before harvesting. […] 5 μL of luciferin was added and luciferase activity was read 30 min later using a spectrophotometer. […] To quantify the protein level induced by cPEPs in Arabidopsis, rosettes were sprayed daily with 100 μM of peptide or its control for 5 days. […] Chlorophyll content was measured using the SPAD chlorophylometer (Konica Minolta). Leaf area was measured using ImageJ software. […]

[6] = test system: luciferase; assay: Luciferase activity in A. thaliana LUC plants with or without cycloheximide; assay type: in vivo, Arabidopsis thaliana; conditions: cycloheximide 200 μg·mL^−1, 24 h
Description: as §3
Arabidopsis thaliana plants comprising the LUC construct were treated by infiltrating the leaves with a solution of peptide with or without cycloheximide (200 μg·mL^−1) in MS/2 medium, 24 h before harvesting for the LUC assay.

[7] = 96-well assay, cPEPluc compared to Scrambled cPEPluc

## cPEPhsp101 (EEYRKYVEKD; cPEPhsp101) [SEQ ID NO: 408, cPEP targeting the homolog of HSP101 in soybean]
[1]
  tolerance to heat stress: increased

## cPEPjar1: cPEP targeting the tomato JAR1 protein (AFRTFEQVWE; cPEpjar1)
[2]
  plant's resistance to B. cinerea: improved

## cPEPluc: complementary peptide of 10 amino acids corresponding to a 10 amino acid fragment of the luciferase protein (KRYGLNTNHR; cPEPluc)
[3]
  luciferase mRNA abundance (qPCR): no effect
[4]
  LUC activity in vitro: increased
[5]; [7]
  optimum concentration of cPEP for luciferase induction: 50 µM
  treatment time showing the maximum effect of cPEP: 24 h
[5]; A. thaliana LUC seedlings, exogenous peptide treatment, compared with water or non-luciferase-specific peptides
  luciferase activity: increased
[6]
  effect of cPEPluc on luciferase activity in the presence of CHX: inhibited
